Reference: patent US11266743B2, “Peptide compositions and methods of use thereof” (priority 2017, dated 2022)

Tested on: Hela pTRE-LucIVS2-705 cells
Assay: PNA705 mediated luciferase splice correction (luminescence, RLU/μg protein)
Assay type: cell-based
Experimental: To assess nuclear cargo delivery and splice correction, PNA705 (SEQ ID NO: 11) was used. Luciferase production was quantified at both the protein (FIG. 6) and mRNA levels (FIG. 7). To quantify functional luciferase levels following splice correction, Hela pLuc705 cells were treated with a 2× serial dilution starting at 5 μM of CPP-PNA705 for 30 minutes in serum free DMEM at 37° C., washed in PBS, and allowed to recover for 24 hours in complete media. To assess the impact of endosomal entrapment and subsequent lysosomal degradation, some cells were co-treated with the endosomal acidification inhibitor chloroquine (120 μM) along with 5 μM CPP-PNA705. Cell lysates were assayed for luciferase by luminescence. To control for total cell density, lysates were also analyzed for total protein by the BCA assay.
Hela pTRE-LucIVS2-705 cells were seeded on flat-bottom 96-well plates at 10,000 cells per well in 200 μl complete DMEM. The following day, cells were washed in phosphate buffered saline and topped with premixed 50 μl 2× serum/phenol red free DMEM (Gibco)+50 μl peptide cleavage solution (ddH2O+peptide). Cells were transfected for 30 min at 37° C. with 5% CO2. The transfection solution was removed, cells were washed with PBS, and topped with 100 μl complete DMEM. The next day (24 hour recovery) cells were washed in PBS and lysed in 20 μl reporter lysis buffer (Promega E4030) following the manufacturers protocol. 10 μl of the lysate was removed and total protein concentration was determined using the bicinchoninic acid assay (Pierce BCA Protein Assay-ThermoFisher 23225). The 96-well plate containing the remaining 10 μl lysate was analyzed for luminescence using the Luciferase Assay System (Promega E1500) on a BioTek SYNERGY™ 2 plate reader with injector ports. Data was expressed as Relative Luminescence Units/μg Protein (RLU/μg Protein) and positive wells were defined as those whose RLU/μg Protein values exceeded the average for the plate by at least three standard deviations. […]

In the case of RRRRRRRRR [Arg9, reference compound], the “efficiency of PNA705 delivery in cell culture (words, rank order)” value was “much better than Tat”.
